Results published in PubChem BioAssay AID248 (DTP/NCI, 2004).
“And” between values parts separate entries of the source, which are not always exact repeats. Equal entries are not always repeated. Inconclusive results and toxic doses are left out. Rule as the data show it: active = T/C of 150% or more; inactive = T/C below 125%.

System: L1210 leukemia ip in BDF1 mice, survival T/C
Experiment: NCI In Vivo Anticancer Drug Screen. Data for tumor model L1210 Leukemia (intraperitoneal) in B6D2F1 (BDF1) mice
Details: endpoint: mean survival time, higher = longer survival
Procedure, shortened: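 Antitumor effect is assessed in tumor-bearing animals. Survival in the compound arm is compared with a vehicle-dosed control arm and expressed as their quotient.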

[1] = dose: 100.0 mg/kg/injection, schedule: Q01DX001 (ip), vehicle: other
[2] = dose: 100.0 mg/kg/injection, schedule: Q04DX002 (ip), vehicle: saline with Tween-80
[3] = dose: 200.0 mg/kg/injection, schedule: Q04DX002 (ip), vehicle: saline with Tween-80
[4] = dose: 400.0 mg/kg/injection, schedule: Q04DX002 (ip), vehicle: saline with Tween-80
[5] = dose: 100.0 mg/kg/injection, schedule: Q01DX001 (ip), vehicle: saline
[6] = dose: 200.0 mg/kg/injection, schedule: Q01DX001 (ip), vehicle: saline
[7] = dose: 400.0 mg/kg/injection, schedule: Q01DX001 (ip), vehicle: saline

Measured: T/C

CS(=O)(=O)OCCN(CCOS(C)(=O)=O)c1ccc(C(=O)O)cc1
inactive: dose: 42.0 mg/kg/injection, schedule: Q01DX015 (ip), vehicle: other 108 % of control | dose: 50.0 mg/kg/injection, schedule: Q01DX001 (ip), vehicle: other 115 % of control | dose: 66.0 mg/kg/injection, schedule: Q01DX015 (ip), vehicle: saline 120 % of control | dose: 72.0 mg/kg/injection, schedule: Q01DX015 (ip), vehicle: other 121 % of control | [1] 115 % of control | dose: 100.0 mg/kg/injection, schedule: Q01DX015 (ip), vehicle: saline 122 % of control | dose: 120.0 mg/kg/injection, schedule: Q01DX015 (ip), vehicle: other 116 % of control | dose: 150.0 mg/kg/injection, schedule: Q01DX015 (ip), vehicle: saline 117 % of control | dose: 177.0 mg/kg/injection, schedule: Q01DX001 (ip), vehicle: other 118 % of control | dose: 177.0 mg/kg/injection, schedule: Q01DX001 (ip), vehicle: saline 117 % of control | dose: 177.0 mg/kg/injection, schedule: Q01DX015 (ip), vehicle: other 93 % of control | dose: 220.0 mg/kg/injection, schedule: Q01DX015 (ip), vehicle: saline 86 % of control | dose: 267.0 mg/kg/injection, schedule: Q01DX001 (ip), vehicle: other 118 % of control | dose: 267.0 mg/kg/injection, schedule: Q01DX001 (ip), vehicle: saline 110 % of control

COc1ccc(Cl)cc1NC(=O)COc1ccccc1
inactive: dose: 100.0 mg/kg/injection, schedule: Q01DX001 (ip), vehicle: saline with Tween-80 89 % of control | dose: 100.0 mg/kg/injection, schedule: Q01DX009 (ip), vehicle: saline with Tween-80 102 % of control | [2] 97 % of control and 98 % of control | dose: 200.0 mg/kg/injection, schedule: Q01DX001 (ip), vehicle: saline with Tween-80 92 % of control | dose: 200.0 mg/kg/injection, schedule: Q01DX009 (ip), vehicle: saline with Tween-80 98 % of control and 102 % of control | [3] 94 % of control and 97 % of control | dose: 400.0 mg/kg/injection, schedule: Q01DX001 (ip), vehicle: saline with Tween-80 101 % of control | dose: 400.0 mg/kg/injection, schedule: Q01DX009 (ip), vehicle: saline with Tween-80 93 % of control and 102 % of control | [4] 94 % of control and 101 % of control

C/C=C1\CN(C(=O)C(NC(=O)C(N)C(O)C(O)COC(N)=O)C2OC(n3cc(CO)c(=O)[nH]c3=O)C(O)C2O)C1C(=O)O (stereo unspecified) (tested in a mixture with another compound)
inactive: [5] 95 % of control | [6] 106 % of control | [7] 105 % of control

CC(=O)c1ccc(P(=O)(O)O)cc1
inactive: dose: 75.0 mg/kg/injection, schedule: Q01DX001 (ip), vehicle: saline 96 % of control | dose: 150.0 mg/kg/injection, schedule: Q01DX001 (ip), vehicle: saline 102 % of control | dose: 300.0 mg/kg/injection, schedule: Q01DX001 (ip), vehicle: saline 98 % of control

O=C(O)Cc1ccc(Cl)cc1Cl
inactive: dose: 50.0 mg/kg/injection, schedule: Q04DX003 (ip), vehicle: Klucel (hydroxypropylcellulose) (HPC) 93 % of control | dose: 100.0 mg/kg/injection, schedule: Q04DX003 (ip), vehicle: Klucel (hydroxypropylcellulose) (HPC) 98 % of control | dose: 200.0 mg/kg/injection, schedule: Q04DX003 (ip), vehicle: Klucel (hydroxypropylcellulose) (HPC) 98 % of control

Clc1c2c(nc3ccccc13)CCCC2
inactive: [5] 95 % of control | [6] 95 % of control

O=C(Nc1nccs1)Nc1cccc2ccccc12
inactive: dose: 100.0 mg/kg/injection, schedule: Q04DX002 (ip), vehicle: Klucel (hydroxypropylcellulose) (HPC) 93 % of control | dose: 200.0 mg/kg/injection, schedule: Q04DX002 (ip), vehicle: Klucel (hydroxypropylcellulose) (HPC) 93 % of control | dose: 400.0 mg/kg/injection, schedule: Q04DX002 (ip), vehicle: Klucel (hydroxypropylcellulose) (HPC) 93 % of control

Cc1cc(N=Nc2ccc([N+](=O)[O-])cc2)ccc1N(C)C
inactive: [1] 97 % of control | dose: 200.0 mg/kg/injection, schedule: Q01DX001 (ip), vehicle: other 101 % of control | dose: 400.0 mg/kg/injection, schedule: Q01DX001 (ip), vehicle: other 89 % of control

CCC[CH2][Ge]([CH2]CCC)([CH2]CCC)[N]1C(=O)c2ccccc2C1=O
inactive: dose: 50.0 mg/kg/injection, schedule: Q01DX001 (ip), vehicle: carboxymethylcellulose (CMC) 102 % of control | dose: 50.0 mg/kg/injection, schedule: Q01DX001 (ip), vehicle: saline 100 % of control | dose: 100.0 mg/kg/injection, schedule: Q01DX001 (ip), vehicle: carboxymethylcellulose (CMC) 96 % of control | [5] 102 % of control | dose: 200.0 mg/kg/injection, schedule: Q01DX001 (ip), vehicle: carboxymethylcellulose (CMC) 103 % of control | [6] 96 % of control | dose: 400.0 mg/kg/injection, schedule: Q01DX001 (ip), vehicle: carboxymethylcellulose (CMC) 105 % of control | [7] 108 % of control

CC1(C)OC2C3COC(O3)C(O)C2O1 (stereo unspecified)
inactive: [2] 99 % of control | [3] 99 % of control | [4] 96 % of control
